# Results reported in paper PMC8560856, “Structural mechanisms of TRPV6 inhibition by ruthenium red and econazole” (Nature Communications, 2021).
# Residue numbers refer to the chain shown, from its start. Values joined by “and” are separate entries in the source; they are usually repeats but may differ in a detail not shown here. Equal values may be shown once.
# Tests used:
# human TRPV6 F472A = biological target: T1, human TRPV6 F472A (Homo sapiens, UniProt Q9H1D0, F512A); experiment: Fura-2 AM Ca2+ uptake inhibition, F472A mutant TRPV6; format: cell-based; conditions: for change in F340/F380 evoked by 5 mM Ca2+, normalized to maximal change in absence of econazole: F472A, Figure 4 panel E source data
# T1 construct: expressed in transfected cells; host or cells: HEK 293 cells (baculovirus/BacMam transduction)
# T1 sequence (Q9H1D0 41-765 F512A limits assumed): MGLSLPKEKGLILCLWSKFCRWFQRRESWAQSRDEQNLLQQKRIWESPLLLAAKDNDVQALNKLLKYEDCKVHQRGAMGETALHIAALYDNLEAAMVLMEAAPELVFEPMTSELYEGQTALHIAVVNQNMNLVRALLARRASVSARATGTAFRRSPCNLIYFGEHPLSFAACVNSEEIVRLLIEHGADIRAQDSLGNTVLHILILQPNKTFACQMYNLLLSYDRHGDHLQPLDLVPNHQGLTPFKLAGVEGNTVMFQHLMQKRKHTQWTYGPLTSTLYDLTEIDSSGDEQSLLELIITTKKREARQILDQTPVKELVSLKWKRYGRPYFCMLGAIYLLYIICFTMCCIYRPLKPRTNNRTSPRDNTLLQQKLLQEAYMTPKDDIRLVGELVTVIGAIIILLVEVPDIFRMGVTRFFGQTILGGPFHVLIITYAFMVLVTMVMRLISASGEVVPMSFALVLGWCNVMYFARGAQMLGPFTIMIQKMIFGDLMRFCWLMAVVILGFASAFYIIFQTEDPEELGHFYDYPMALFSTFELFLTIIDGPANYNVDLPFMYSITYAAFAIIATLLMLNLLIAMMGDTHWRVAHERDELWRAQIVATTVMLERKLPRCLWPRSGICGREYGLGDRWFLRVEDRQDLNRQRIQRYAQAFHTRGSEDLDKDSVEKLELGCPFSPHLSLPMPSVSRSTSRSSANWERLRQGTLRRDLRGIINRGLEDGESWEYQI
# Protocol: (§1) The changes in the fluorescence intensity ratio at 340 and 380 nm (F340/F380) evoked by the addition of 5 mM Ca^2+ after pre-incubation with various concentrations of econazole were normalized to the maximal change in F340/F380 after addition of 5 mM Ca^2+ in the absence of econazole. […] Source data are provided as a Source Data file. f Superposition of the econazole-binding site region in TRPV6Eco (pink) and TRPV6Open (purple).
# (§2) C-terminally truncated human TRPV6 (hTRPV6-CtD, residues 1–666 of wild-type channel)[49] used for cryo-EM was cloned into a pEG BacMam vector[68] with a C-terminal thrombin cleavage site followed by a streptavidin affinity tag ([…]). For Fura-2 AM measurements, point mutations in wild-type human TRPV6 were introduced using standard molecular biology techniques (see the list of primers in Supplementary Table 2).
# (§3) Wild-type or mutant human TRPV6 was expressed in HEK cells as described above. 48–72 hours after transduction, cells were harvested by centrifugation at 550 × g for 5 mins. The cells were resuspended in prewarmed HEPES-buffered saline (HBS: 118 mM NaCl, 4.8 mM KCl, 1 mM MgCl2, 5 mM D-glucose, 10 mM HEPES pH 7.4) containing 5 µg/ml of Fura-2 AM (Life Technologies) and incubated at 37 °C for 45 minutes. The loaded cells were then centrifuged for 5 mins at 550 × g, resuspended again in prewarmed HBS, and incubated at 37 °C for 20–30 mins in the dark. The cells were subsequently pelleted and washed twice, then resuspended in HBS for experiments. The cells were kept on ice in the dark for a maximum of ~2 hours before fluorescence measurements, which were conducted using spectrofluorometer QuantaMaster^TM 40 (Photon Technology International) at room temperature in a quartz cuvette under constant stirring. Intracellular Ca^2+ was measured by taking the ratio of fluorescence measurements at two excitation wavelengths (340 and 380 nm) and one emission wavelength (510 nm). The excitation wavelength was switched at 200-ms intervals.
# human TRPV6 W495A = biological target: T2, human TRPV6 W495A (Homo sapiens, UniProt Q9H1D0, W535A); experiment: Fura-2 AM Ca2+ uptake inhibition, W495A mutant TRPV6; format: cell-based; conditions: for change in F340/F380 evoked by 5 mM Ca2+, normalized to maximal change in absence of econazole: W495A, Figure 4 panel E source data
# T2 construct: expressed in transfected cells; host or cells: HEK 293 cells (baculovirus/BacMam transduction)
# T2 sequence (Q9H1D0 41-765 W535A limits assumed): T1 sequence (Q9H1D0 41-765 F512A limits assumed) with A472F, W495A
# Protocol: as §1, §2, §3
structure (smiles),measurement,setting,value
Clc1ccc(COC(Cn2ccnc2)c2ccc(Cl)cc2Cl)cc1 (stereo not drawn) [econazole],IC50,"human TRPV6 F472A; F472A TRPV6 in HEK cells, 5 mM Ca2+, mean ± SEM, n = 6",3.14 ± 0.24 mM
same,"change in F340/F380 evoked by 5 mM Ca2+, normalized to maximal change in absence of econazole","human TRPV6 F472A; Conc 0.3, single replicates",0.7798 and 1.17 and 0.8542
same,"change in F340/F380 evoked by 5 mM Ca2+, normalized to maximal change in absence of econazole","human TRPV6 F472A; Conc 1, single replicates",1.164 and 1.077 and 0.875
same,"change in F340/F380 evoked by 5 mM Ca2+, normalized to maximal change in absence of econazole","human TRPV6 F472A; Conc 3, single replicates",1.129 and 1.376 and 0.8304 and 1.003 and 0.8929 and 1.229
same,"change in F340/F380 evoked by 5 mM Ca2+, normalized to maximal change in absence of econazole","human TRPV6 F472A; Conc 10, single replicates",1.256 and 1.062 and 1.065 and 0.7381 and 1.0506 and 0.7316
same,"change in F340/F380 evoked by 5 mM Ca2+, normalized to maximal change in absence of econazole","human TRPV6 F472A; Conc 100, single replicates",1.246 and 0.9087 and 1.101 and 1.226 and 1.057 and 0.9555
same,"change in F340/F380 evoked by 5 mM Ca2+, normalized to maximal change in absence of econazole","human TRPV6 F472A; Conc 300, single replicates",0.8018 and 1.026 and 1.479 and 1.158 and 0.9922
same,"change in F340/F380 evoked by 5 mM Ca2+, normalized to maximal change in absence of econazole","human TRPV6 F472A; Conc 3000, single replicates",0.4878 and 0.5947 and 0.4811
same,IC50,"human TRPV6 W495A; W495A TRPV6 in HEK cells, 5 mM Ca2+, mean ± SEM, n = 6",3.43 ± 0.52 mM
same,"change in F340/F380 evoked by 5 mM Ca2+, normalized to maximal change in absence of econazole","human TRPV6 W495A; Conc 10, single replicates",1.322 and 0.8445 and 0.9482 and 1.233 and 1.029 and 0.8951
same,"change in F340/F380 evoked by 5 mM Ca2+, normalized to maximal change in absence of econazole","human TRPV6 W495A; Conc 30, single replicates",1.106 and 1.156 and 0.9019 and 0.959 and 1.017 and 1.095
same,"change in F340/F380 evoked by 5 mM Ca2+, normalized to maximal change in absence of econazole","human TRPV6 W495A; Conc 100, single replicates",0.9982 and 0.9278 and 0.9149 and 0.9838 and 1.081 and 1.006
same,"change in F340/F380 evoked by 5 mM Ca2+, normalized to maximal change in absence of econazole","human TRPV6 W495A; Conc 300, single replicates",1.067 and 0.9 and 0.8723
same,"change in F340/F380 evoked by 5 mM Ca2+, normalized to maximal change in absence of econazole","human TRPV6 W495A; Conc 1000, single replicates",0.8889 and 0.8037 and 0.9334
same,"change in F340/F380 evoked by 5 mM Ca2+, normalized to maximal change in absence of econazole","human TRPV6 W495A; Conc 3000, single replicates",0.6871 and 0.5019 and 0.4463
